Laboratory results published in patent publication US20250263376A1, “(E)-N-CINNAMOYLAMINOALKANOLS WITH MELANOGENESIS INHIBITORY ACTIVITY” (Uniwersytet Jagiellonski, priority 2024, published 2025).

What was measured:
S. typhimurium TA98 = assay: Ames microplate test, TA98; type: cell-based, Salmonella typhimurium
Protocol: Bacteria were grown overnight in growth medium.

CHO-K1 cells = assay: Cytotoxicity (MTT) in CHO-K1 cells before the micronucleus test; type: cell-based, Chinese hamster; conditions: 24 hours
Protocol: The assay was performed using a Chinese hamster ovary cell line (CHO-K1) purchased from the American Type Culture Collection (ATCC). The cells were cultured in F-12K medium with the addition of 10% fetal bovine serum (FBS) and antibiotics (streptomycin/penicillin) in an incubator at 37° C. and 5% CO2 concentration). Before the actual micronucleus test, a cytotoxicity assessment was performed to ensure that the actual test was performed only at safe concentrations. For this purpose, cells were transferred to 96-well plates and incubated with the tested compounds for 24 hours. After this time, the MTT test was performed and cell viability was assessed in comparison to the control group (cells cultured with DMSO at the same concentration as in the case of the tested samples).

S. typhimurium TA100 = assay: Ames microplate test, TA100; type: cell-based, Salmonella typhimurium
Protocol: (§1) The study used the Ames microplate test (Ames MPF™ Penta 2 by Xenometrix, Allschwil, Switzerland). Growth medium, exposure medium, indicator medium, positive controls, hepatic microsomal fraction, NADP, glucose-6-phosphate, Salmonella typhimurium and Escherichia coli strains were components of the purchased experimental kit. Bacteria were grown overnight in growth medium. They were then exposed to the test compound at the appropriate concentration in exposure medium without or with the rat microsomal fraction S9 in 24-well plates for 90 min at 37° C. with shaking. Then, indicator medium was added to the wells and pipetted into 384-well plates, which were incubated for 48 hours at 37° C. without shaking. Results were assessed by counting the wells in which the medium turned yellow for each experimental condition.

[1] = system: human reconstructed epidermis model EpiDerm; assay: Extended skin irritation test in reconstructed human epidermis EpiDerm; type: cell-based; conditions: for Il-1α in culture medium: medium after first 24 hours
Protocol: Extended Skin Irritation Tests on Reconstructed Human Epidermis-Exposure Time Extended to 7 Days.
In order to perform extended skin irritation (safety) tests on the reconstructed human epidermis, the exposure time to the tested compounds was extended to 2 and 7 days in the human reconstructed epidermis model EpiDerm™ from MatTek. The epidermis was cultured according to the manufacturer's recommendations, using appropriate multi-well plates and culture media. Solutions of the tested compounds were applied to the epidermis using a positive displacement pipette and distributed using a sterile glass bulb headed Pasteur pipette. […] The epidermis was cultured in an incubator ensuring appropriate humidity, temperature (37° C.) and CO2 concentration (5%). The medium was replaced daily. After an appropriate incubation time, i.e. 2 days or 7 days, the epidermis was rinsed with sterile DPBS and incubated with MTT (Thiazolyl Blue Tetrazolium bromide) solution at 37° C. for 3 hours. After this time, a purple color of formazan was observed, correlated with tissue viability. […] Moreover, in the medium collected after the first 24 hours of EpiDerm epidermis culture, the level of interleukin 1α (Il-1α), which is a mediator of inflammation, was determined. Its level correlates with the unfavorable (irritating) effect of the tested substances on the epidermis. The level of IL-1α was determined using the Cayman Elisa test.

[2] = system: reconstructed human epidermis containing melanocytes MelanoDerm MEL-300-B; assay: Melanogenesis inhibition in reconstructed human epidermis containing melanocytes (MelanoDerm); type: cell-based; conditions: 14 days, MTT
Protocol: Melanogenesis Inhibition Studies in a Model of Reconstructed Human Epidermis Containing Melanocytes (MelanoDerm by Mattek).
The research was carried out on reconstructed human epidermis containing melanocytes MelanoDerm™ MEL-300-B from MatTek (Bratislava, Slovakia). The ratio of keratinocytes to melanocytes in the epidermis used is 10:1. Only medium purchased from the same manufacturer (EPI-100-NMM-113) was used to culture the epidermis during the experiments. Once the epidermis was obtained, it was transferred to 12-well plates containing 5 mL of medium/well. Plates were used to enable proper contact of the lower parts of the inserts with the substrate (so-called hanging-top plate). Solutions of the compounds were prepared immediately before their application. The solutions were applied to the inserts using a positive displacement pipette and then distributed using a sterile glass bulb headed Pasteur pipette. The application was repeated every 48 hours, a total of 7 applications were performed. Before the next application, each insert was rinsed with sterile DPBS and dried with a sterile cotton buds. The application was also accompanied by a change of the medium. […] The epidermis was cultured in an incubator ensuring appropriate humidity, temperature (37° C.) and CO2 concentration (5%).
The experiment was conducted for 14 days. After this time, the inserts were rinsed with DPBS and dried with a cotton swab. For the selected pool of inserts, tissue viability was assessed using the MTT (Thiazolyl Blue Tetrazolium bromide) test, the remaining ones were used to determine the amount of melanin. To assess viability, the inserts were transferred to 24-well plate containing 0.3 mL of DMEM medium with 1 mg/mL MTT and incubated for 3 hours in an incubator. The epidermis was then placed in 2 mL of isopropanol and the resulting formazan was extracted for 2 hours at room temperature. The absorbance of the samples was measured at 570 nm in a microplate reader and correlated with the absorbance of the control by the formula: % Viability=[OD (570 nm) for test compound/OD (570 nm) for control]×100. To determine the amount of melanin, the inserts were incubated in 5% sodium bicarbonate for 30 min, then dried and placed in 0.5 mL of Solvable™ reagent, which caused complete lysis of the epidermis. After heating at 95° C., the absorbance of the samples was measured at 405 nm in a microplate reader. On this basis, the reduction in the amount of melanin was calculated in relation to the control sample. The absorbance results were also correlated with a standard curve for synthetic melanin.

E. coli WP2 = assay: Ames microplate test, E. coli WP2;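 note: bacteria exposed to compound for 90 min at 37 °C in 24-well plates, then transferred with indicator medium to 384-well plates and incubated 48 h before yellow well counting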
Protocol: as §1

SMILES | Increase in the number of yellow wells compared to the reference level, TA98 (S. typhimurium TA98; 0.5 mM, + S9) | Increase in the number of yellow wells compared to the reference level, TA98 (S. typhimurium TA98; 0.5 mM, without S9) | Increase in the number of yellow wells compared to the reference level, TA98 (S. typhimurium TA98; 1.0 mM, + S9) | Increase in the number of yellow wells compared to the reference level, TA98 (S. typhimurium TA98; 1.0 mM, without S9) | Increase in the number of yellow wells compared to the reference level, TA98 (S. typhimurium TA98; 2.0 mM, + S9) | Increase in the number of yellow wells compared to the reference level, TA98 (S. typhimurium TA98; 2.0 mM, without S9) | % Viability [mean], CHO-K1 (CHO-K1 cells; 100 μM) [%] | % Viability [mean], CHO-K1 (CHO-K1 cells; 150 μM) [%] | % Viability [mean], CHO-K1 (CHO-K1 cells; 200 μM) [%] | Increase in the number of yellow wells compared to the reference level, TA100 (S. typhimurium TA100; 0.5 mM, + S9) | Increase in the number of yellow wells compared to the reference level, TA100 (S. typhimurium TA100; 0.5 mM, without S9) | Increase in the number of yellow wells compared to the reference level, TA100 (S. typhimurium TA100; 1.0 mM, + S9) | Increase in the number of yellow wells compared to the reference level, TA100 (S. typhimurium TA100; 1.0 mM, without S9) | Increase in the number of yellow wells compared to the reference level, TA100 (S. typhimurium TA100; 2.0 mM, + S9) | Increase in the number of yellow wells compared to the reference level, TA100 (S. typhimurium TA100; 2.0 mM, without S9) | Viability [% of control, mean ± SD] 2 days ([1]; 1.0% in 50% PEG (10 μL)) | Viability [% of control, mean ± SD] 7 days ([1]; 1.0% in 50% PEG (10 μL)) | Increase in the number of yellow wells compared to the reference level, E. coli WP2 (E. coli WP2; 0.5 mM, without S9) | Increase in the number of yellow wells compared to the reference level, E. coli WP2 (E. coli WP2; 1.0 mM, without S9) | Increase in the number of yellow wells compared to the reference level, E. coli WP2 (E. coli WP2; 2.0 mM, without S9) | also measured
O=C(/C=C/c1ccc(Cl)cc1)NCCCCCO [Compound A-111, (2E)-3-(4-chlorophenyl)-N-(5-hydroxypentyl)prop-2-enamide] | 1.50 | 0.7 | 0.83 | 0.44 | 1.50 | 1.00 | 86.1 | 95.6 | 98.6 | 0.97 | 0.74 | 0.47 | 0.39 | 0.67 | 0.42 | 98.56 ± 11.78 % of control | 100.41 ± 1.52 % of control | 1.46 | 1.10 | 1.10 | Viability [% of control, mean ± SD] 2 days ([1]; 0.1% in 50% PEG (10 μL)): 88.42 ± 1.25 % of control; Viability [% of control, mean ± SD] 7 days ([1]; 0.1% in 50% PEG (10 μL)): 107.77 ± 3.12 % of control; Viability [% of control, mean ± SD] 2 days ([1]; 0.5% in 50% PEG (10 μL)): 92.02 ± 3.47 % of control; Viability [% of control, mean ± SD] 7 days ([1]; 0.5% in 50% PEG (10 μL)): 113.85 ± 4.03 % of control; Il-1α in culture medium ([1]; 1.0% in 50% PEG (10 μL)): 15.89 ± .057 pg/mL; Viability [% control, mean ± SD] ([2]; 1.0% in 50% PEG (10 μL)): 101.45 ± 6.45 % control; Viability [% control, mean ± SD] ([2]; 1.0% in 50% PEG (25 μL)): 85.67 ± 7.25 % control; Viability [% control, mean ± SD] ([2]; 2.0% in 50% PEG (25 μL)): 106.64 ± 7.78 % control; Increase in the number of yellow wells compared to the reference level, E. coli WP2 (E. coli WP2; 0.5 mM, + S9): 0.62; Increase in the number of yellow wells compared to the reference level, E. coli WP2 (E. coli WP2; 1.0 mM, + S9): 0.71; Increase in the number of yellow wells compared to the reference level, E. coli WP2 (E. coli WP2; 2.0 mM, + S9): 0.98
O=C(/C=C/c1ccccc1)NCCCCCO [Compound A-133, (2E)-N-(5-hydroxypentyl)-3-phenylprop-2-enamide] | 0.50 | 0.44 | 0.67 | 0.33 | 1.00 | 0.67 | 94.6 | 97.2 | 89.1 | 0.83 | 0.60 | 0.78 | 1.03 | 0.61 | 0.57 | 107.19 ± 7.45 % of control | 107.26 ± 21.82 % of control | 0.73 | 0.37 | 1.10 | Il-1α in culture medium ([1]; 1.0% in 50% PEG (10 μL)): 34.99 ± 1.17 pg/mL; Viability [% control, mean ± SD] ([2]; 1.0% in 50% PEG (10 μL)): 101.22 ± 6.52 % control; Increase in the number of yellow wells compared to the reference level, E. coli WP2 (E. coli WP2; 0.5 mM, + S9): 0.27; Increase in the number of yellow wells compared to the reference level, E. coli WP2 (E. coli WP2; 1.0 mM, + S9): 0.44; Increase in the number of yellow wells compared to the reference level, E. coli WP2 (E. coli WP2; 2.0 mM, + S9): 0.53
Cc1ccc(/C=C/C(=O)NCCCCCO)cc1 [H-415/21, (2E)-N-(5-hydroxypentyl)-3-(4-methylphenyl)prop-2-enamide] | – | 0.47 | – | 0.24 | – | 0.35 | 102.2 | 102.8 | 87.2 | – | 0.92 | – | 0.58 | – | 0.75 | – | – | 0.64 | 0.40 | 0.95 | –
O=C(/C=C/c1ccccc1)NCCCCCCO [H-425/21, (E)-N-(6-hydroxyhexyl)cinnamic acid amide] | 0.42 | 0.27 | 0.42 | 0.54 | 0.63 | 0.80 | 87.6 | 83.8 | 88.0 | 0.50 | 0.73 | 0.69 | 0.80 | 0.58 | 0.73 | 99.75 ± 15.49 % of control | 104.01 ± 1.11 % of control | 0.17 | 0.67 | 1.00 | Il-1α in culture medium ([1]; 1.0% in 50% PEG (10 μL)): 60.29 ± 1.08 pg/mL; Viability [% control, mean ± SD] ([2]; 1.0% in 50% PEG (10 μL)): 87.16 ± 6.30 % control; Increase in the number of yellow wells compared to the reference level, E. coli WP2 (E. coli WP2; 0.5 mM, + S9): 0.75; Increase in the number of yellow wells compared to the reference level, E. coli WP2 (E. coli WP2; 1.0 mM, + S9): 0.83; Increase in the number of yellow wells compared to the reference level, E. coli WP2 (E. coli WP2; 2.0 mM, + S9): 0.75
